PMC6628648, “Enabling microbial syringol conversion through structure-guided protein engineering” (Proceedings of the National Academy of Sciences of the …, 2019)
Where two headings read alike, the source gives them in different places.

Key:
GcoA-F169A [1] = target: T1, GcoA-F169A (Amycolatopsis sp., UniProt P0DPQ7, F169A); assay: NADH consumption assay (steady-state kinetics, specific activity) with GcoB; settings: for Specific activity: NADH consumption, saturating (200 µM) substrate, pH 7.5, 25°C; for NADH disappearance (specific activity): Table S1, saturating substrate
T1 sequence (P0DPQ7 whole entry F169A): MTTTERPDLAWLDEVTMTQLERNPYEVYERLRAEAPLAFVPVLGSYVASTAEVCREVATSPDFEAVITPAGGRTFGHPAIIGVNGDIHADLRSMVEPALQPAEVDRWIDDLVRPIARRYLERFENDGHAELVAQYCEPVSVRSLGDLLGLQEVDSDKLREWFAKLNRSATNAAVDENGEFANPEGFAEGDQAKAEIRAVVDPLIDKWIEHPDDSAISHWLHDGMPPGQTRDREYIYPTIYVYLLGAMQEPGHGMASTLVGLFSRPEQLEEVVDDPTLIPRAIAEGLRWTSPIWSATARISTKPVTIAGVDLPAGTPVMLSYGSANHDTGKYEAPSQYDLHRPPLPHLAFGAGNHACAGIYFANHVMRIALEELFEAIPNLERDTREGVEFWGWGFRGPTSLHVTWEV

WT GcoA = target: T2, WT GcoA (Amycolatopsis sp., UniProt P0DPQ7); assay: biochemical; format: binding, Amycolatopsis sp. ATCC 39116; settings: for %Fe(III) spin state conversion: WT GcoA, final high-spin (388 nm) divided by starting low-spin (417 nm)
T2 construct: GST (N, cleaved yes); made in house; host or cells: E. coli Rosetta 2 (DE3)
T2 sequence (P0DPQ7 whole entry): as the sequence (P0DPQ7 whole entry F169A) above, with A169F counted along it

GcoA-F169A [2] = target: T1, GcoA-F169A; assay: Substrate dissociation constant by ferric spin-state (UV/vis) titration; format: binding, Amycolatopsis sp. ATCC 39116; design: GST (N, cleaved yes); made in house; host or cells: E. coli Rosetta 2 (DE3)
Method: The equilibrium binding constant, KD, for GcoA-F169A and guaiacol, syringol, and 3MC was determined as described previously ([28]) and detailed in SI Appendix. […]
vi = Vmax[S]/(KM + [S]) (4)
Determination of substrate dissociation constants (KD) with F169A. 0-60 µM of guaiacol, syringol, or 3MC in 0.5 or 1 µM aliquots, were titrated into a cuvette containing 3 µM F169A GcoA in 25 mM HEPES, 50 mM NaCl, pH 7.5. The spectrum after each substrate addition was recorded, beginning with no substrate bound. The solution reached equilibrium before the next addition. A difference spectrum was made to illustrate the shift from a low-spin aquo-heme complex to the high-spin substrate-bound complex (spectral […]
shift from 417 nm to 388 nm). […] The absorbance […]
at 388 nm (Abs388-417 nm) was plotted as a function of [substrate], yielding a quadratic curve that was fit to equation (5) to determine […]
Δ Absobs = Δ Absmax2Et(L0 + Et + KD − √(L0 + Et + Kd)2 − 4Et ∗ L0) (5)
Where L0, Et, KD, and ΔAbsmax are the ligand concentrations, total protein (subunit) concentration, the equilibrium dissociation constant, and the maximum Abs388-417 nm, respectively. Reported values are the average of 2 or more measurements.
Formaldehyde determination. A colorimetric assay using tryptophan can be used to quantify the amount of formaldehyde produced in F169 GcoA/B reactions with guaiacol, syringol, or 3MC. 0.2 µM each of F169 GcoA mutants and GcoB were dissolved in air-saturated buffer (25 mM HEPES, 50 mM NaCl) in a cuvette at pH 7.5, 25 °C. 100 µg/mL catalase was added to each reaction to capture any H2O2 formed during the uncoupled reaction. 200 μM NADH was added and the background rate recorded. 100 (guaiacol, syringol, or 3MC) or 200 (syringol) μM of substrate was then added and the reaction monitored until there was no more change, due to either substrate, NADH or O2 depletion, whichever occurred first. […] After cooling, the absorbance was read at 575 nm and the [formaldehyde] calculated by using ε575 nm = 4.2 mM-1 cm-1, obtained with formaldehyde as a standard (1). […]

GcoA variant F169I = target: T3, GcoA variant F169I (Amycolatopsis sp., UniProt P0DPQ7, F169I); assay: NADH consumption assay (specific activity) with GcoB; format: biochemical, Amycolatopsis sp. ATCC 39116; settings: saturating (200 µM) substrate, pH 7.5, 25°C
T3 construct: GST (N, cleaved yes); made in house; host or cells: E. coli Rosetta 2 (DE3)
T3 sequence (P0DPQ7 whole entry F169I): as the sequence (P0DPQ7 whole entry F169A) above, with A169I counted along it

| Structure (SMILES) | Specific activity (GcoA-F169A [1]) [μmol sec-1 μmol-1 GcoA] | NADH disappearance (specific activity) (GcoA-F169A [1]) [μM s-1 μmol F169A-1] | %Fe(III) spin state conversion (WT GcoA) [%] | Kd (GcoA-F169A [2]; GcoA-F169A, air-saturated 25 mM Hepes, 50 mM NaCl, pH 7.5, 25 °C, low-spin (417 nm) to high-spin (388 nm) change) [µM] | Specific activity (GcoA variant F169I) [μmol sec-1 μmol-1 GcoA] | Kd (WT GcoA) [µM] | Kd (GcoA-F169A [2]) [µM] |
| --- | --- | --- | --- | --- | --- | --- | --- |
| COc1cccc(O)c1O [3MC, 3-methoxycatechol] | 5.6 ± 0.8 | 5.6 ± 0.8 | 62 ± 0.01 | 9.5 ± 0.2 | 1.1 ± 0.7 | – | – |
| COc1ccccc1O [guaiacol, 2-methoxyphenol] | 5.8 ± 0.8 | 5.8 ± 0.8 | 87 ± 1 | – | 1.4 ± 0.2 | 0.0065 ± 0.002 | 7.1 ± 0.1 |
| COc1cccc(OC)c1O [syringol, 2,6-dimethoxyphenol] | 5.1 ± 0.8 | 5.1 ± 0.8 | 56 ± 2 | – | 0.56 ± 0.2 | – | 1.7 ± 0.07 |
